Patent US10081624B2, “Heterocyclic compound” (Takeda Pharmaceutical Company Limited, priority 2014, dated 2018)

Each molecule was assayed against T1, HDAC6 enzyme (Homo sapiens, UniProt Q9UBN7) (assay: HDAC6 enzyme inhibitory assay (HDAC-Glo I/II Assay kit)). Details: 1 μM test compound; read-out: HDAC6 inhibitory rate (%) (1 μM).
T1 construct: prepared by transducing full length HDAC1 and HDAC6 genes into Sf-9 insect cells; GST; purchased SignalChem; host or cells: Sf-9 insect cells
T1 sequence (Q9UBN7 1-1215): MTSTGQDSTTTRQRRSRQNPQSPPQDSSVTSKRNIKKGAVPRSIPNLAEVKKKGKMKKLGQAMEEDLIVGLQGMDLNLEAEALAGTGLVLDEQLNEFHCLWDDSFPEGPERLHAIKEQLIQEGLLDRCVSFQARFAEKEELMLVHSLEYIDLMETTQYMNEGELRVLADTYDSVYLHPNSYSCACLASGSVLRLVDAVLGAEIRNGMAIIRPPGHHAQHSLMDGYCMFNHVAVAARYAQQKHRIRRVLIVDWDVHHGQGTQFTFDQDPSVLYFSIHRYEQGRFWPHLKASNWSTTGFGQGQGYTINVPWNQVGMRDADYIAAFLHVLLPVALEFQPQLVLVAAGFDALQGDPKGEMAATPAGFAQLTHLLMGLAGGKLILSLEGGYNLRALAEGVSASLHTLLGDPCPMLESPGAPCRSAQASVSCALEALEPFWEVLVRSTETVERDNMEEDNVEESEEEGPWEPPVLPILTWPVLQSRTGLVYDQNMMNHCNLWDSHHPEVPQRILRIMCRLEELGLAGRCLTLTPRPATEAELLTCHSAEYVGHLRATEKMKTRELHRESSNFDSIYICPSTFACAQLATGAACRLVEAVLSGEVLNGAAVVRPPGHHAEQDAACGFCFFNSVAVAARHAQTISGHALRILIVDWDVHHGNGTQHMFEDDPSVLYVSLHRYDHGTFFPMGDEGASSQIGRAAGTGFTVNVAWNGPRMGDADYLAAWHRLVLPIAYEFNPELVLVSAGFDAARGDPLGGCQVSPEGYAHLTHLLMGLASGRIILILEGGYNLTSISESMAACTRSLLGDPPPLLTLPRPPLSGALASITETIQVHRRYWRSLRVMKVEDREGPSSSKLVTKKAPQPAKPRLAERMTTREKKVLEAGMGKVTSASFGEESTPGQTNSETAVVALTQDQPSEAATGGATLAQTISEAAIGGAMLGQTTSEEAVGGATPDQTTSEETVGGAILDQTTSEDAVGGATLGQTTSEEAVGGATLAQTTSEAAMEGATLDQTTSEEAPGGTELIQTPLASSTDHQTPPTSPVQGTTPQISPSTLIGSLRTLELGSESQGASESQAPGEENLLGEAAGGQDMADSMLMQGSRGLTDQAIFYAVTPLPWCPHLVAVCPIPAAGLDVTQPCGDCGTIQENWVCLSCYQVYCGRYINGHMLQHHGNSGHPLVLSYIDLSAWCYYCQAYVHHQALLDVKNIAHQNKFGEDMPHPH
Format: biochemical
Method in brief: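 Luminescent HDAC-Glo I/II read-out after 20 min room-temperature reaction with substrate-developer, following a 60 min room-temperature enzyme–compound preincubation. Enzymes: full-length HDAC1 or HDAC6 from Sf-9 cells, GST-purified; buffer pH 7.5 Tris with NaCl, glutathione, 0.01% Tween-20. No-enzyme wells defined 100% inhibition.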

Row | Compound | inhibition at 1 µM [%]
1 | Cn1nccc1C(=O)N1CCOCC1CNC(=O)c1ccc(-c2noc(C(F)(F)F)n2)s1 (stereo not drawn) [Example 229, N-((4-((1-methyl-1H-pyrazol-5-yl)carbonyl)morpholin-3-yl)methyl)-5-(5-(trifluoromethyl)-1,2,4-oxadiazol-3-yl)thiophene-2-carboxamide] | 97
2 | O=C(NC[C@H]1COCCN1C(=O)C1CCOC1)c1ccc(-c2noc(C(F)(F)F)n2)cc1 (stereo partly drawn) [Example 79, N-(((3S)-4-(tetrahydrofuran-3-ylcarbonyl)morpholin-3-yl)methyl)-4-(5-(trifluoromethyl)-1,2,4-oxadiazol-3-yl)benzamide] | 94
3 | O=C(NC[C@H]1COCCN1C(=O)C1CCCO1)c1ccc(-c2noc(C(F)(F)F)n2)cc1 (stereo partly drawn) [Example 78, N-(((3S)-4-(tetrahydrofuran-2-ylcarbonyl)morpholin-3-yl)methyl)-4-(5-(trifluoromethyl)-1,2,4-oxadiazol-3-yl)benzamide] | 88
4 | O=C(NC[C@@H]1COCCN1C(=O)C1CCCO1)c1ccc(-c2noc(C(F)(F)F)n2)cc1 (stereo partly drawn) [Example 150, N-(((3R)-4-(tetrahydrofuran-2-ylcarbonyl)morpholin-3-yl)methyl)-4-(5-(trifluoromethyl)-1,2,4-oxadiazol-3-yl)benzamide] | 90
5 | O=C(NCC1c2ccccc2CN1C(=O)c1cc(Cl)cc(Cl)c1)c1ccc(-c2noc(C(F)(F)F)n2)cc1 (stereo not drawn) [Example 171, N-((2-(3,5-dichlorobenzoyl)-2,3-dihydro-1H-isoindol-1-yl)methyl)-4-(5-(trifluoromethyl)-1,2,4-oxadiazol-3-yl)benzamide] | 66
6 | O=C(NC[C@H]1COCCN1C(=O)CC1CC1)c1ccc(-c2noc(C(F)(F)F)n2)cc1 [Example 76, N-(((3S)-4-(cyclopropylacetyl)morpholin-3-yl)methyl)-4-(5-(trifluoromethyl)-1,2,4-oxadiazol-3-yl)benzamide] | 90
7 | O=C(NCC1COCCN1C(=O)c1cccc2c1OCC2)c1ccc(-c2noc(C(F)(F)F)n2)s1 (stereo not drawn) [Example 252, N-((4-(2,3-dihydro-1-benzofuran-7-ylcarbonyl)morpholin-3-yl)methyl)-5-(5-(trifluoromethyl)-1,2,4-oxadiazol-3-yl)thiophene-2-carboxamide] | 91
8 | O=C(NC[C@@H]1COCCN1C(=O)C1CCOC1)c1ccc(-c2noc(C(F)(F)F)n2)cc1 (stereo partly drawn) [Example 151, N-(((3R)-4-(tetrahydrofuran-3-ylcarbonyl)morpholin-3-yl)methyl)-4-(5-(trifluoromethyl)-1,2,4-oxadiazol-3-yl)benzamide] | 90
9 | O=C(NC[C@H]1COCCN1C(=O)C(c1ccccc1)c1ccccc1)c1ccc(-c2noc(C(F)(F)F)n2)cc1 [Example 57, N-(((3S)-4-(diphenylacetyl)morpholin-3-yl)methyl)-4-(5-(trifluoromethyl)-1,2,4-oxadiazol-3-yl)benzamide] | 56
10 | O=C(NCC1COCCN1C(=O)C1CC1)c1ccc(-c2noc(C(F)(F)F)n2)s1 (stereo not drawn) [Example 253, N-((4-(cyclopropylcarbonyl)morpholin-3-yl)methyl)-5-(5-(trifluoromethyl)-1,2,4-oxadiazol-3-yl)thiophene-2-carboxamide] | 97
11 | O=C(NCC1COCCN1C(=O)Cc1cccs1)c1ccc(-c2noc(C(F)(F)F)n2)s1 (stereo not drawn) [Example 245, N-((4-(2-thienylacetyl)morpholin-3-yl)methyl)-5-(5-(trifluoromethyl)-1,2,4-oxadiazol-3-yl)thiophene-2-carboxamide] | 95

More lines, now with the values ahead:

Row | inhibition at 1 µM [%] | Compound
12 | 91 | O=C(NCC1COCCN1C(=O)c1ccccc1-c1ccccc1)c1ccc(-c2noc(C(F)(F)F)n2)s1 (stereo not drawn) [Example 221, N-((4-(biphenyl-2-ylcarbonyl)morpholin-3-yl)methyl)-5-(5-(trifluoromethyl)-1,2,4-oxadiazol-3-yl)thiophene-2-carboxamide]
13 | 90 | O=C(NC[C@@H]1COCCN1C(=O)C1CCc2ccccc2O1)c1ccc(-c2noc(C(F)(F)F)n2)cc1 (stereo partly drawn) [Example 124, N-(((3R)-4-(3,4-dihydro-2H-chromen-2-ylcarbonyl)morpholin-3-yl)methyl)-4-(5-(trifluoromethyl)-1,2,4-oxadiazol-3-yl)benzamide]
14 | 93 | Cc1cc(C(=O)N2CCOC[C@@H]2CNC(=O)c2ccc(-c3noc(C(F)(F)F)n3)cc2)on1 [Example 62, N-(((3S)-4-((3-methyl-1,2-oxazol-5-yl)carbonyl)morpholin-3-yl)methyl)-4-(5-(trifluoromethyl)-1,2,4-oxadiazol-3-yl)benzamide]
15 | 95 | O=C(NC[C@@H]1COCCN1C(=O)c1ccc(OCC(F)(F)F)nc1)c1ccc(-c2noc(C(F)(F)F)n2)cc1 [Example 123, N-(((3R)-4-((6-(2,2,2-trifluoroethoxy)pyridin-3-yl)carbonyl)morpholin-3-yl)methyl)-4-(5-(trifluoromethyl)-1,2,4-oxadiazol-3-yl)benzamide]
16 | 99 | Cc1ccsc1C(=O)N1CCOC[C@@H]1CNC(=O)c1ccc(-c2noc(C(F)(F)F)n2)cn1 [Example 198, N-(((3S)-4-((3-methyl-2-thienyl)carbonyl)morpholin-3-yl)methyl)-5-(5-(trifluoromethyl)-1,2,4-oxadiazol-3-yl)pyridine-2-carboxamide]
17 | 95 | N#Cc1ccc(C(=O)N2CCOC[C@@H]2CNC(=O)c2ccc(-c3noc(C(F)(F)F)n3)cn2)cc1 [Example 190, N-(((3S)-4-(4-cyanobenzoyl)morpholin-3-yl)methyl)-5-(5-(trifluoromethyl)-1,2,4-oxadiazol-3-yl)pyridine-2-carboxamide]
18 | 36 | Cc1cc(C(=O)N2CCOC[C@H]2CNC(=O)c2ccc(-c3noc(C(F)(F)F)n3)cc2)cc(O)n1 [Example 122, N-(((3R)-4-(2-hydroxy-6-methylisonicotinoyl)morpholin-3-yl)methyl)-4-(5-(trifluoromethyl)-1,2,4-oxadiazol-3-yl)benzamide]
19 | 94 | N#Cc1ccccc1C(=O)N1CCOC[C@@H]1CNC(=O)c1ccc(-c2noc(C(F)(F)F)n2)cn1 [Example 187, N-(((3S)-4-(2-cyanobenzoyl)morpholin-3-yl)methyl)-5-(5-(trifluoromethyl)-1,2,4-oxadiazol-3-yl)pyridine-2-carboxamide]
20 | 96 | O=C(NCC1COCCN1C(=O)c1ccncc1)c1ccc(-c2noc(C(F)(F)F)n2)cc1 (stereo in doubt) [Example 120, N-(((3R)-4-isonicotinoylmorpholin-3-yl)methyl)-4-(5-(trifluoromethyl)-1,2,4-oxadiazol-3-yl)benzamide]
21 | 91 | N#Cc1cccc(C(=O)N2CCOCC2CNC(=O)c2ccc(-c3noc(C(F)(F)F)n3)cc2)c1 (stereo in doubt) [Example 116, N-(((3R)-4-(3-cyanobenzoyl)morpholin-3-yl)methyl)-4-(5-(trifluoromethyl)-1,2,4-oxadiazol-3-yl)benzamide]
22 | 89 | O=C(NC[C@H]1COCCN1C(=O)c1cc[nH]n1)c1ccc(-c2noc(C(F)(F)F)n2)cc1 [Example 71, N-(((3S)-4-(1H-pyrazol-3-ylcarbonyl)morpholin-3-yl)methyl)-4-(5-(trifluoromethyl)-1,2,4-oxadiazol-3-yl)benzamide]
23 | 93 | N#Cc1ccc(C(=O)N2CCOCC2CNC(=O)c2ccc(-c3noc(C(F)(F)F)n3)cc2)cc1 (stereo in doubt) [Example 117, N-(((3R)-4-(4-cyanobenzoyl)morpholin-3-yl)methyl)-4-(5-(trifluoromethyl)-1,2,4-oxadiazol-3-yl)benzamide]
24 | 92 | O=C(NCC1COCCN1C(=O)c1ccccn1)c1ccc(-c2noc(C(F)(F)F)n2)s1 (stereo not drawn) [Example 224, N-((4-(pyridin-2-ylcarbonyl)morpholin-3-yl)methyl)-5-(5-(trifluoromethyl)-1,2,4-oxadiazol-3-yl)thiophene-2-carboxamide]
